Results from patent US10179123B2, “2-aryl- and 2-arylalkyl-benzimidazoles as mIDH1 inhibitors” (BAYER PHARMA AKTIENGESELLSCHAFT, priority 2015, dated 2019).

Molecular target: IDH1 R132H enzyme (Homo sapiens (Human), UniProt O75874, R132H)
Experiment: Mutant IDH1 R132H biochemical assay
Conditions: NADPH consumption, luminescent readout; 1.5 nM enzyme, 1 μM NADPH, 250 μM α-KG, 30 minutes, 32° C.
Experimental: NADPH consumption was measured by luminescent readout. […] The final DMSO concentration was 2.4%. […] Luminescence was measured on a luminescent reader (10 seconds measuring time, 1 second integration period, 30% sensitivity). The decrease in luminescence is proportional to mIDH1 activity. IC50 values are determined by interpolation from plots of relative luminescence versus inhibitor concentration.

Chain of IDH1 R132H enzyme (O75874 whole entry R132H): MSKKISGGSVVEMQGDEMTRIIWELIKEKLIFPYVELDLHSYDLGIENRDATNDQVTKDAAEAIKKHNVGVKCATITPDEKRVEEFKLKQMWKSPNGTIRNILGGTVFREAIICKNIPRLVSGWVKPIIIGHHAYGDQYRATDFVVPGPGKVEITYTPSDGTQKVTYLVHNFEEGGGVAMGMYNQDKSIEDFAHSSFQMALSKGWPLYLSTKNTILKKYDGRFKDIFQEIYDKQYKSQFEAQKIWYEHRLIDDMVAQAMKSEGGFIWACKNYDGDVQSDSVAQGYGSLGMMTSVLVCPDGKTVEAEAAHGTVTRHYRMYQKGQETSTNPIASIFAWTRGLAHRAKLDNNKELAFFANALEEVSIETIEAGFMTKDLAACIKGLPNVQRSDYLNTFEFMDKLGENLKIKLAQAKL

| IC50 [nM] | Compound |
| --- | --- |
| > 10000 | COC(=O)c1ccc2c(c1)nc(C(C)(C)c1ccc(OC(F)(F)F)cc1)n2[C@H]1C[C@@H](C)CC(C)(C)C1 (racemic) [Reference compound 2-5, (±) methyl 2-{2-[4-(trifluoromethoxy)phenyl]propan-2-yl}-1-[(cis)-3,3,5-trimethylcyclohexyl]-1H-benzimidazole-5-carboxylate, reference compound] |
| 1500 | COC(=O)c1ccc2c(c1)nc(Cc1ccc(OC(C)C)cc1)n2[C@H]1C[C@@H](C)CC(C)(C)C1 (racemic) [Example 2-6, (±) methyl 2-[4-(propan-2-yloxy)benzyl]-1-[(cis)-3,3,5-trimethylcyclohexyl]-1H-benzimidazole-5-carboxylate] |
| 580 | Cc1ccc(Cc2nc3cc(C(=O)O)ccc3n2[C@@H]2C[C@H](C)CC(C)(C)C2)cc1 (stereo in doubt) [Example 2-36] |
| 10000 | COC(=O)c1ccc2c(c1)nc(Cc1ccccc1OC(F)(F)F)n2[C@@H]1C[C@H](C)CC(C)(C)C1 (racemic) [Example 2-13, (± methyl 2-[2-(trifluoromethoxy)benzyl]-1-[(cis)-3,3,5-trimethylcyclohexyl]-1H-benzimidazole-5-carboxylate] |
| 4200 | COC(=O)c1ccc2c(c1)nc(Cc1ccc(F)cc1)n2[C@H]1C[C@@H](C)CC(C)(C)C1 (racemic) [Example 2-9, (±) methyl 2-(4-fluorobenzyl)-1-[(cis)-3,3,5-trimethylcyclohexyl]-1H-benzimidazole-5-carboxylate] |
| 610 | COC(=O)c1ccc2c(c1)nc(Cc1ccc(OC(F)(F)F)cc1)n2[C@H]1C[C@@H](C)CC(C)(C)C1 (single isomer, unassigned) [Example 2-3-2, methyl 2-[4-(trifluoromethoxy)benzyl]-1-[(cis)-3,3,5-trimethylcyclohexyl]-1H-benzimidazole-5-carboxylate] |
| 1400 | COC(=O)c1ccc2c(c1)nc(Cc1ccc(C(C)(C)C)cc1)n2[C@H]1C[C@@H](C)CC(C)(C)C1 (racemic) [Example 2-11, (±) methyl 2-(4-tert-butylbenzyl)-1-[(cis)-3,3,5-trimethylcyclohexyl]-1H-benzimidazole-5-carboxylate] |
| 1700 | COC(=O)c1ccc2c(c1)nc(Cc1ccc(OC(F)(F)F)cc1)n2[C@H]1C[C@@H](C)CC(C)(C)C1 (single isomer, unassigned) [Example 2-3-1, methyl 2-[4-(trifluoromethoxy)benzyl]-1-[(cis)-3,3,5-trimethylcyclohexyl]-1H-benzimidazole-5-carboxylate] |
| 10000 | COC(=O)c1ccc2c(c1)nc(Cc1cccc(OC(F)(F)F)c1)n2[C@H]1C[C@@H](C)CC(C)(C)C1 (racemic) [Example 2-14, (±) methyl 2-[3-(trifluoromethoxy)benzyl]-1-[(cis)-3,3,5-trimethylcyclohexyl]-1H-benzimidazole-5-carboxylate] |
| 1500 | COC(=O)c1ccc2c(c1)nc(Cc1ccc(C)cc1)n2[C@H]1C[C@@H](C)CC(C)(C)C1 (racemic) [Example 2-10, (±) methyl 2-(4-methylbenzyl)-1-[(cis)-3,3,5-trimethylcyclohexyl]-1H-benzimidazole-5-carboxylate] |
| 450 | CC(C)Oc1ccc(Cc2nc3cc(C(=O)O)ccc3n2[C@@H]2C[C@H](C)CC(C)(C)C2)cc1 (stereo in doubt) [Example 2-32-1] |
| 2400 | C[C@H]1C[C@@H](n2c(Cc3ccccc3)nc3cc(C(=O)O)ccc32)CC(C)(C)C1 (stereo in doubt) [Example 2-38] |
| 700 | C[C@@H]1C[C@H](n2c(Cc3ccc(C(F)(F)F)cc3)nc3cc(C#N)ccc32)CC(C)(C)C1 (racemic) [Example 2-26, (±) 2-[4-(trifluoromethyl)benzyl]-1-[(cis)-3,3,5-trimethylcyclohexyl]-1H-benzimidazole-5-carbonitrile] |
| 1200 | COC(=O)c1cc2nc(Cc3ccc(OC(F)(F)F)cc3)n([C@H]3C[C@@H](C)CC(C)(C)C3)c2cc1C (single isomer, unassigned) [Example 2-18-2, methyl 6-methyl-2[4-(trifluoromethoxy)benzyl]-1-[(cis)-3,3,5-trimethylcyclohexyl]-1H-benzimidazole-5-carboxylate] |

Further lines, the molecule ahead of its results:

| Compound | IC50 [nM] |
| --- | --- |
| COC(=O)c1cc2nc(Cc3ccc(OC(F)(F)F)cc3)n([C@H]3C[C@@H](C)CC(C)(C)C3)c2cc1OC(C)C (single isomer, unassigned) [Example 2-20-1, methyl 6-(propan-2-yloxy)-2-[4-(trifluoromethoxy)benzyl]-1-[(cis)-3,3,5-trimethylcyclohexyl]-1H-benzimidazole-5-carboxylate] | 1300 |
| COC(=O)c1ccc2c(c1)nc(-c1ccc(OC(F)(F)F)cc1)n2[C@H]1C[C@@H](C)CC(C)(C)C1 (single isomer, unassigned) [Example 2-1-2, methyl 2-[4-(trifluoromethoxy)phenyl]-1-[(cis)-3,3,5-trimethylcyclohexyl]-1H-benzimidazole-5-carboxylate] | 5700 |
| Cc1nc(-c2ccccc2)sc1Cc1nc2cc(C(=O)O)ccc2n1[C@@H]1C[C@H](C)CC(C)(C)C1 (stereo in doubt) [Example 2-41] | 2300 |
| Cc1[nH]c2ccc(F)cc2c1Cc1nc2cc(C(=O)O)ccc2n1[C@@H]1C[C@H](C)CC(C)(C)C1 (stereo in doubt) [Example 2-42] | 7000 |
| COC(=O)c1ccc2c(nc(Cc3ccc(OC(F)(F)F)cc3)n2C2CC(C)(C)CC(C)(C)C2)c1F [Example 2-22, methyl 4-fluoro-1-(3,3,5,5-tetramethylcyclohexyl)-2-[4-(trifluoromethoxy)benzyl]-1H-benzimidazole-5-carboxylate] | 800 |
| CC(C)Oc1ccc(Cc2nc3cc(C#N)ccc3n2[C@H]2C[C@@H](C)CC(C)(C)C2)cc1 (racemic) [Example 2-24, (±) 2-[4-(propan-2-yloxy)benzyl]-1-[(cis)-3,3,5-trimethylcyclohexyl]-1H-benzimidazole-5-carbonitrile] | 1500 |
| CC(C)c1ccc(Cc2nc3cc(C#N)ccc3n2[C@H]2C[C@@H](C)CC(C)(C)C2)cc1 (racemic) [Example 2-25, (±) 2-[4-(propan-2-yl)benzyl]-1-[(cis)-3,3,5-trimethylcyclohexyl]-1H-benzimidazole-5-carbonitrile] | 350 |
| COC(=O)c1ccc2c(c1)nc(C(C)c1ccc(OC(F)(F)F)cc1)n2[C@H]1C[C@@H](C)CC(C)(C)C1 (single isomer, unassigned) [Reference compound 2-4-1, methyl 2-{1-[4-(trifluoromethoxy)phenyl]ethyl}-1-[(cis)-3,3,5-trimethylcyclohexyl]-1H-benzimidazole-5-carboxylate, reference compound] | > 10000 |
| CC(C)Oc1cc2c(cc1C(=O)O)nc(Cc1ccc(OC(F)(F)F)cc1)n2[C@H]1C[C@@H](C)CC(C)(C)C1 (stereo in doubt) [Example 2-46-2] | 500 |
| COC(=O)c1ccc2c(c1)nc(-c1ccc(OC(F)(F)F)cc1)n2[C@H]1C[C@@H](C)CC(C)(C)C1 (racemic) [Example 2-1, (±) methyl 2-[4-(trifluoromethoxy)phenyl]-1-[(cis)-3,3,5-trimethylcyclohexyl]-1H-benzimidazole-5-carboxylate] | 9900 |
| C[C@H]1C[C@@H](n2c(C(C)(C)c3ccc(OC(F)(F)F)cc3)nc3cc(C(=O)O)ccc32)CC(C)(C)C1 (stereo in doubt) [Example 2-31] | 3800 |
| C[C@H]1C[C@@H](n2c(Cc3ccc(OC(F)(F)F)cc3)nc3cc(C(=O)O)c(OCC(F)(F)F)cc32)CC(C)(C)C1 (stereo in doubt) [Example 2-47-1] | 2000 |
| COC(=O)c1ccc2c(c1)nc(-c1ccc(OC(F)(F)F)cc1)n2[C@H]1C[C@@H](C)CC(C)(C)C1 (single isomer, unassigned) [Example 2-1-1, methyl 2-[4-(trifluoromethoxy)phenyl]-1-[(cis)-3,3,5-trimethylcyclohexyl]-1H-benzimidazole-5-carboxylate] | 1000 |
| COC(=O)c1ccc2c(c1)nc(C(C)c1ccc(OC(F)(F)F)cc1)n2[C@H]1C[C@@H](C)CC(C)(C)C1 (relative stereo) [Reference compound 2-4, methyl 2-{1-[4-(trifluoromethoxy)phenyl]ethyl}-1-[(cis)-3,3,5-trimethylcyclohexyl]-1H-benzimidazole-5-carboxylate, reference compound] | > 10000 |
| C[C@H]1C[C@@H](n2c(Cc3ccc(OC(F)(F)F)cc3)nc3cc(C(=O)O)c(OCC(F)(F)F)cc32)CC(C)(C)C1 (stereo in doubt) [Example 2-47] | 1000 |
| COC(=O)c1cc2nc(Cc3ccc(OC(F)(F)F)cc3)n([C@H]3C[C@@H](C)CC(C)(C)C3)c2cc1OC(C)C (single isomer, unassigned) [Example 2-20-2, methyl 6-(propan-2-yloxy)-2-[4-(trifluoromethoxy)benzyl]-1-[(cis)-3,3,5-trimethylcyclohexyl]-1H-benzimidazole-5-carboxylate] | 3300 |
| C[C@H]1C[C@@H](n2c(Cc3cn(C)c4ccccc34)nc3cc(C(=O)O)ccc32)CC(C)(C)C1 (stereo in doubt) [Example 2-43] | 6600 |
| C[C@H]1C[C@@H](n2c(Cc3ccccc3OC(F)(F)F)nc3cc(C(=O)O)ccc32)CC(C)(C)C1 (stereo in doubt) [Example 2-39] | 5000 |
| COC(=O)c1ccc2c(c1)nc(C(C)c1ccc(OC(F)(F)F)cc1)n2[C@H]1C[C@@H](C)CC(C)(C)C1 (single isomer, unassigned) [Reference compound 2-4-2, methyl 2-{1-[4-(trifluoromethoxy)phenyl]ethyl}-1-[(cis)-3,3,5-trimethylcyclohexyl]-1H-benzimidazole-5-carboxylate, reference compound] | > 10000 |
